From publication PMC3227451, “Structure-based development of novel sirtuin inhibitors” (Aging (Albany NY), 2011) come the findings set out here.

One data set addresses T1, Sirt1 (Homo sapiens, UniProt Q96EB6).
T1 sequence (Q96EB6 1-747): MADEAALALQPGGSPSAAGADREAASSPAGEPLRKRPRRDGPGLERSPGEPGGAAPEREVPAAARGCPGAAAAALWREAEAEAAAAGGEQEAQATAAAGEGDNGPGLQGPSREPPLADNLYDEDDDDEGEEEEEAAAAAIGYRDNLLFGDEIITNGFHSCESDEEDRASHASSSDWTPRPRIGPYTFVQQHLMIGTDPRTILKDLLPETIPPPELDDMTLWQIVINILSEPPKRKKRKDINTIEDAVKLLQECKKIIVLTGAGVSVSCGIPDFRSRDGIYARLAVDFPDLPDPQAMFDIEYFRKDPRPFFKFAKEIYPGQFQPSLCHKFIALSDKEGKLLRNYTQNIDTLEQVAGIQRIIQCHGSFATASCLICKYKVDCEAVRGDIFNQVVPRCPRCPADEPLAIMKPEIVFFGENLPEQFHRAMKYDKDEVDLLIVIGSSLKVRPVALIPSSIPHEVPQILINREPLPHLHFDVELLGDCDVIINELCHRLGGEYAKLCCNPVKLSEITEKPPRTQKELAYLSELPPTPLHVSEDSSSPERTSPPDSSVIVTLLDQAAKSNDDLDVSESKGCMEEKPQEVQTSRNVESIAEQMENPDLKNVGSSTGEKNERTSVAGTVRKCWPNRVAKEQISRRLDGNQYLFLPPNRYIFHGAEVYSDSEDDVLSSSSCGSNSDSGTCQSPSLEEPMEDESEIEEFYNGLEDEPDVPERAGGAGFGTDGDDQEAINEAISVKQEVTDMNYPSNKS
Nature of the data set: in vitro activity of Sirt1. The format is biochemical. To be noted: concentration of 100 μM.

The target of another data set is T2, Sirt2 (Homo sapiens, UniProt Q8IXJ6).
T2 sequence (Q8IXJ6 34-356): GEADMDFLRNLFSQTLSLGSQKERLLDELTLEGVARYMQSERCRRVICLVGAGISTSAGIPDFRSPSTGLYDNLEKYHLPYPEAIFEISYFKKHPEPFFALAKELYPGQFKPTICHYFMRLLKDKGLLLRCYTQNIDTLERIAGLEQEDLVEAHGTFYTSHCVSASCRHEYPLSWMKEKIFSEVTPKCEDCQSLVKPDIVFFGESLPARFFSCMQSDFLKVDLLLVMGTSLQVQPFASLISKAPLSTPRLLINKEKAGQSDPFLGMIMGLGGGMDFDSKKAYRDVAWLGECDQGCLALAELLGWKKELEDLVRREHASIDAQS
The data set can be described thus: Fluor-de-Lys peptide deacetylation assay, Sirt2. The format is biochemical. The gist of the method: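 Full-length human Sirt2 (E. coli-expressed, purified, His-tag removed) incubated 30 min at 37 °C with 0.1 mM FdL-2 peptide (QPK(acetyl-K)), 0.5 mM NAD+ and compound at 100 μM final in kit buffer. Values corrected with compound-only (no Sirtuin) controls; screen in duplicate, dose-response in triplicate.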

For a further data set, the system named is HEK cells. The data set can be described thus: Cytotoxicity testing on HEK cells.

As a reminder, the IC50 is the concentration needed to halve the response being measured. Low readings indicate higher potency, high ones lower potency. The inhibition is how much of the control response was suppressed. Turning to `CC12Cc3cnc(-c4ccccc4)nc3CC1CCC1C2CCC2(C)C1CCC2(C)O` (centres unmarked) [CSC13, 1,11a,13a-trimethyl-8-phenyl-2,3,3a,3b,4,5,5a,6,11,11a,11b,12,13,13a-tetradecahydro-1H-cyclopenta[5,6]naphtho[1,2-g]quinazolin-1-ol], at Sirt1, the “effect on the in vitro activity of Sirt1” value was “only a weak inhibitory effect”. Moreover, on Sirt2, the “Effect on the activity of Sirt2” value is “inhibition (key: inhibition: significant inhibitory effects (>25% loss of activity); ---: no such effect)” and the IC50 turned out to be 9.7 ± 1.5 µM. Moreover, the inhibition at 100 µM at Sirt2 (read-out: Sirt2 inhibition in the screen) is about 80%. Also, the cytotoxicity result in the data set with HEK cells is on record as “smaller effect”.
